ChEMBL document CHEMBL6109120, “Discovery of Novel SIK2/3 Inhibitors for the Potential Treatment of MEF2C+ Acute Myeloid Leukemia (AML)” (J Med Chem, 2025)

What was measured:
[1] = biological target: T1, Serine/threonine-protein kinase TBK1 (Homo sapiens, UniProt Q9UHD2)
T1 sequence (Q9UHD2 whole entry): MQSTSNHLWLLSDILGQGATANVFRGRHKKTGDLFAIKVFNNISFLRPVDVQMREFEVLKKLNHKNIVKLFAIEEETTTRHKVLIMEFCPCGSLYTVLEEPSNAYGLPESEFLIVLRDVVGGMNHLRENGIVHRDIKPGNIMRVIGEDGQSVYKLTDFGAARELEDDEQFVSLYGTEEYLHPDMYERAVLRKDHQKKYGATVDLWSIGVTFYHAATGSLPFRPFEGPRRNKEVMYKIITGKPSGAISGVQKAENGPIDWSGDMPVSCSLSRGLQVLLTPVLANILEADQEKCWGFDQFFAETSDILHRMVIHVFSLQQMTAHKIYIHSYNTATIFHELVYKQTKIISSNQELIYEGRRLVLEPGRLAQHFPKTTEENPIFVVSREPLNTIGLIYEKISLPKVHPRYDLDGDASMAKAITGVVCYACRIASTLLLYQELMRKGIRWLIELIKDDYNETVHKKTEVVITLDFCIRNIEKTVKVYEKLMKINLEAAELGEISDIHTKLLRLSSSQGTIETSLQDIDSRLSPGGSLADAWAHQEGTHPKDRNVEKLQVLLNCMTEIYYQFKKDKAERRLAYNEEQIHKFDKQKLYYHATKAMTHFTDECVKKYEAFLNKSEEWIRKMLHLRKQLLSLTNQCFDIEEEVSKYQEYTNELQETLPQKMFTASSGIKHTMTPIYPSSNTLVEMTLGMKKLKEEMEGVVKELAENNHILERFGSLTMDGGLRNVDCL
Description: Binding affinity to human TBK1 by KINOMEscan assay

[2] = biological target: MAP kinase-interacting serine/threonine-protein kinase 2 (Homo sapiens, UniProt Q9HBH9); assay: Binding affinity to human MKNK2 by KINOMEscan assay
Cytochrome P450 2D6 = Cytochrome P450 2D6 (Homo sapiens, UniProt P10635); assay: Inhibition of CYP2D6 in human liver microsomes assessed as dextromethorphan O-demethylation reaction measured after 30 mins by LC/MS/MS analysis; format: ADME, Microsome
[3] = biological target: T2, Cyclin-G-associated kinase (Homo sapiens, UniProt O14976)
T2 sequence (O14976 whole entry): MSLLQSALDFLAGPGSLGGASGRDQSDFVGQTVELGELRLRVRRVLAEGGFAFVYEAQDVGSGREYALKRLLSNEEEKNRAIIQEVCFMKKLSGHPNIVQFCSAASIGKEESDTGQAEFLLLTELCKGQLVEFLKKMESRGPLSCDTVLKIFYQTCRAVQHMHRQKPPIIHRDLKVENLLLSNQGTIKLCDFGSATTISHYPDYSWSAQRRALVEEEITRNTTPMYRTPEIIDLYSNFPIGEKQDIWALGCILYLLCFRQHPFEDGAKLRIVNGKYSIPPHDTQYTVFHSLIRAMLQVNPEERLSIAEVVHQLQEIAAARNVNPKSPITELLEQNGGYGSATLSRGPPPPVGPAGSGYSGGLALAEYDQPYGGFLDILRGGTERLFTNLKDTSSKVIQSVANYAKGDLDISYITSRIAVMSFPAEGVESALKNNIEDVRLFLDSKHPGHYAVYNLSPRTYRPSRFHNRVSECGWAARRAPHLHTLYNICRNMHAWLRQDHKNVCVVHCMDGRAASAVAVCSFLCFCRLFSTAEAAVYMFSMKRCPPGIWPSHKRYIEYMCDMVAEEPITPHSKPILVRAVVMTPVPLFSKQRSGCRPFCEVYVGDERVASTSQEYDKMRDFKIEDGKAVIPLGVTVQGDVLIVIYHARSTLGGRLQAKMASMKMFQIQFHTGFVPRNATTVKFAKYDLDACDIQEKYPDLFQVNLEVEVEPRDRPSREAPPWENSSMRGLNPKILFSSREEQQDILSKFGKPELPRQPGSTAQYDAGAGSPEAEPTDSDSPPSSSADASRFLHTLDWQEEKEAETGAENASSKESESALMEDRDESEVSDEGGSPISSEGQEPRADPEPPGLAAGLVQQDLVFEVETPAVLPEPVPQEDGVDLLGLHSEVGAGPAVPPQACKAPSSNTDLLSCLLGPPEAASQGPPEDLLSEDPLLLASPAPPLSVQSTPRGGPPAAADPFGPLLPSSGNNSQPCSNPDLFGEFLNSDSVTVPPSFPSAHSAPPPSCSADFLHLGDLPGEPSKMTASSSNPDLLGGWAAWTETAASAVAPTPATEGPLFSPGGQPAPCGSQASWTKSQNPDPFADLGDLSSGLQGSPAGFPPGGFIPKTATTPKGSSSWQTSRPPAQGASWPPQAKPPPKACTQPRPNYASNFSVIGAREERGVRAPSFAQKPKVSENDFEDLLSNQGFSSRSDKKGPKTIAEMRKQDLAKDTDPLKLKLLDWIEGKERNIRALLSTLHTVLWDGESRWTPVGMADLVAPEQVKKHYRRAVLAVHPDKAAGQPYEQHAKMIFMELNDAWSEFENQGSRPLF
Description: Binding affinity to human GAK by KINOMEscan assay

Cytochrome P450 2C19 = Cytochrome P450 2C19 (Homo sapiens, UniProt P33261); assay: Inhibition of CYP2C19 in human liver microsomes assessed as S-mephenytoin 4-hydroxylation reaction measured after 30 mins by LC/MS/MS analysis; format: ADME, Microsome
[4] = biological target: T3, Dual specificity mitogen-activated protein kinase kinase 5 (Homo sapiens, UniProt Q13163)
T3 sequence (Q13163 whole entry): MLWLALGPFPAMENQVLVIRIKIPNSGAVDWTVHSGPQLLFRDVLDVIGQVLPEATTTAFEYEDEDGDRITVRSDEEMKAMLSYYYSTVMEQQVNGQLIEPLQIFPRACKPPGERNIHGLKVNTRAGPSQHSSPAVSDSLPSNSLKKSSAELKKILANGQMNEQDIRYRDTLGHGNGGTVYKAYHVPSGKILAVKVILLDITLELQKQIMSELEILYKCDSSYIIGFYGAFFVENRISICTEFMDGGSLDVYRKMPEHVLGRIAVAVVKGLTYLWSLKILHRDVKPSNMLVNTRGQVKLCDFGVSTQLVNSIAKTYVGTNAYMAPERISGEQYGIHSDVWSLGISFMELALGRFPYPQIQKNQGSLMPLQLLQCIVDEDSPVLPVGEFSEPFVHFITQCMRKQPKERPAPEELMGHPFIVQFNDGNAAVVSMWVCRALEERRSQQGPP
Description: Binding affinity to human MEK5 by KINOMEscan assay

Cytochrome P450 2C9 = Cytochrome P450 2C9 (Homo sapiens, UniProt P11712); assay: Inhibition of CYP2C9 in human liver microsomes assessed as diclofenac 4-hydroxylation reaction measured after 30 mins by LC/MS/MS analysis; format: ADME, Microsome
Sequence of Cytochrome P450 2C9 (P11712 whole entry): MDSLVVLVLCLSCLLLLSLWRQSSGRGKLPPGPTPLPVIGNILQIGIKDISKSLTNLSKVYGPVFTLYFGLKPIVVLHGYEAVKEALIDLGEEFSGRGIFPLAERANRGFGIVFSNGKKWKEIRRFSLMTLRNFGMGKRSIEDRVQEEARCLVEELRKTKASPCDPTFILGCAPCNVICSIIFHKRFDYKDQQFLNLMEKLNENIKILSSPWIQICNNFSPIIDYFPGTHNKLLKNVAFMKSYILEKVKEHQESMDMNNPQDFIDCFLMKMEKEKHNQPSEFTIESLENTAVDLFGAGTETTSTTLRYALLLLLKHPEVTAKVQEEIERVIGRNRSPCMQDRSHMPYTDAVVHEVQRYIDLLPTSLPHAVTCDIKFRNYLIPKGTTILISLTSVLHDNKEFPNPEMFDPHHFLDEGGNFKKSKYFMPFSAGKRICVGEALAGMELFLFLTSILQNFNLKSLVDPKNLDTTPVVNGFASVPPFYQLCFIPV

Sequence of MAP kinase-interacting serine/threonine-protein kinase 2 (Q9HBH9 whole entry): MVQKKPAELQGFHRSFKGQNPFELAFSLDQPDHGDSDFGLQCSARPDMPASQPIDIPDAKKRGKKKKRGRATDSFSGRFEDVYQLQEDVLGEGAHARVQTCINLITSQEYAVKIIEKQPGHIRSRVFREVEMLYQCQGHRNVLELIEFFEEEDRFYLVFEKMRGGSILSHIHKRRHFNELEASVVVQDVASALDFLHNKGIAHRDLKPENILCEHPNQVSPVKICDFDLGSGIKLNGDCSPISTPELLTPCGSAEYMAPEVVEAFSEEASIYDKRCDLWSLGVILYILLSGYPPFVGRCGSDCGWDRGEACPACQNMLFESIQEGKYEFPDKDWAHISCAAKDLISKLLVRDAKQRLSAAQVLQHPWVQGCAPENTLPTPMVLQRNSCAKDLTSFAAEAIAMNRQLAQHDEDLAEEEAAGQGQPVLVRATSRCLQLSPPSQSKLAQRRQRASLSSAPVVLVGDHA
Sequence of Cytochrome P450 2D6 (P10635 whole entry): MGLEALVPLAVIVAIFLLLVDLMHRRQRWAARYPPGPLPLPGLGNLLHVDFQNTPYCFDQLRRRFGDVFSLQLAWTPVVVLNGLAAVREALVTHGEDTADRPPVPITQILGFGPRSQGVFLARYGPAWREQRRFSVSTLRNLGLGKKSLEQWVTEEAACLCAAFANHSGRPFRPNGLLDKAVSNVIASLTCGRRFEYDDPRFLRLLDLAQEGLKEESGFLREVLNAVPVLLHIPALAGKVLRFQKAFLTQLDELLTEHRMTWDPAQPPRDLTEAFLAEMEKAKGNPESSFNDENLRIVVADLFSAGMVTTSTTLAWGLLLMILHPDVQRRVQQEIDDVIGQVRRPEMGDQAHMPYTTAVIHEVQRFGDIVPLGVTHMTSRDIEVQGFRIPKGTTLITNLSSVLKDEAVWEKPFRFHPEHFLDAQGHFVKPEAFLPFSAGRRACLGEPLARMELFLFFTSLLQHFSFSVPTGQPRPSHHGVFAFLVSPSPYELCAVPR
Sequence of Cytochrome P450 2C19 (P33261 whole entry): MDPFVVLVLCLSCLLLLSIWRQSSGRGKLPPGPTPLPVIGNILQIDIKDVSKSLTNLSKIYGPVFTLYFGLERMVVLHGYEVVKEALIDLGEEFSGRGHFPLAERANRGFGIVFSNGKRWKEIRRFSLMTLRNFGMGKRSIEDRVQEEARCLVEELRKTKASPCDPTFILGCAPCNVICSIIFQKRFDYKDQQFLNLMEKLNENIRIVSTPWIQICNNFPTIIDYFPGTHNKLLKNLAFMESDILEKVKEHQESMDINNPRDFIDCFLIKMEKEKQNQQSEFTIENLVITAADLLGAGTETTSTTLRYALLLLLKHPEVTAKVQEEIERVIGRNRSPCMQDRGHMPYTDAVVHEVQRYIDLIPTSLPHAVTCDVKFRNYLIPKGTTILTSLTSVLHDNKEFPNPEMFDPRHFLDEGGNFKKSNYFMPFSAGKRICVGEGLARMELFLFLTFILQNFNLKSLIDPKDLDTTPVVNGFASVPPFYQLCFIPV

IC50 [1]: 230 nM
IC50 [2]: 15 nM
IC50 (Cytochrome P450 2D6): > 50 µM
IC50 [3]: 492 nM
IC50 (Cytochrome P450 2C19): > 50 µM
IC50 [4]: 2650 nM
IC50 (Cytochrome P450 2C9): > 50 µM
Compound: COc1nc(-c2cc(-c3cnn(C)c3)cnc2N)cc2c1C(=O)N(CC(F)(F)F)CC2
